The target in experiment [1] is antigen 85 complex. Conditions: antigen 85 complex of Mycobacterium tuberculosis; cited from earlier work.
Experiment [2] deals with urease in living cells of P. mirabilis PCM 543. Kind of experiment: Inhibition of ureolysis in whole P. mirabilis cells in PBS buffer (nongrowth conditions). The settings on record: Proteus mirabilis, read-out: IC50 (PBS buffer).
For experiment [3], the target named is histone deacetylases. Set-up: method as in PMID 22047054. The settings on record: cited from earlier work.
Experiment [4] has as its target methionine aminopeptidase 2. Conditions: cited from earlier work.
For experiment [5], the target named is bacterial thioredoxin reductase, Bacillus anthracis. The settings on record: cited from earlier work.
In experiment [6] the target is glutamate dehydrogenase. Conditions: cited from earlier work.
Experiment [7] deals with Sporosarcina pasteurii urease (Sporosarcina pasteurii, UniProt P41020). Kind of experiment: Inhibition of purified S. pasteurii urease (Ki; phenol-hypochlorite/Berthelot ammonia assay). It counts as biochemical. The settings on record: for mechanism of inhibition: S. pasteurii urease, Lineweaver-Burk plots / reaction progress curves. The procedure:
The values of kinetic parameters ( and KM
vmax) of the purified enzyme were determined by fitting the initial reaction velocities measured in a range of urea concentrations to the Michaelis-Menten equation by nonlinear regression. The values […]
Enzymatic reactions were carried out in 3 mM phosphate buffer pH 7.5 at 37 °C. The kinetic parameters of urease in the noninhibited reaction ( and ) were obtained by measuring the Kmvmax […]
activity was defined as the amount of enzyme required to produce 1 µM ammonia per min under […]
S2.1. Inhibition studies.
S. pasteuriipM urease in assay mixtures (200 μL total volume) containing increasing concentrations […]
The values were calculated using the appropriate equations in Ki the GraphPad Prism 5 software. The inhibition mechanism was determined using Lineweaver-Burk plots after testing at least five inhibitor concentrations in the range depending on their inhibitory strength (exemplified in Figure S26).
S2.2. Inhibition studies. […]
and 52), ammonia concentration versus time, for urea hydrolysis catalyzed by S. pasteurii urease in the absence and presence of inhibitors were performed in standard assay mixtures at a single urea concentration (final concentration 25 mM) and at different inhibitor concentrations according to their inhibitory strength. Enzymatic hydrolysis of urea was initiated by adding […] of urease solution […]
min in samples taken from reaction mixtures at set time intervals. The reaction mixtures were stirred throughout the measurement period. The nonlinear reaction progress curves with time-dependent inhibitors of urease (for the nonincubated reaction and under conditions: [I]0 ≫ [E] 0) were described using the integrated equation: , (where is the concentration [P]=vt+(v+v)(1―e―kappt)1P […]
of the reaction product formed at time t, which is the reaction time, and are the reaction initial vivs and steady-state rates, respectively, and is the apparent first-order rate constant for the kapp interconversion between and ). […] The vivs […]
equilibrium dissociation constants of the initial and the final enzyme conformation complex EI EI ∗ […]
is the Michaelis-Menten constant, maximum rate of enzyme in a noninhibited reaction, vmax S and I are substrate and inhibitor concentration). The mechanism of inhibitor binding was determined using steady-state kinetic measurements (Figures S27 and S28). […]
pM) was pre-incubated with increasing inhibitor concentrations in separate aliquots of reaction buffer prior to the initiation of the reaction by urea incorporation at a concentration ranging from 1 to 60 mM. The incubation time was different for the assayed inhibitors, depending on when equilibrium was achieved between enzyme , inhibitor and enzyme-inhibitor complexes ( and : (E)(I)EI EI ∗ E + I ↔EI ↔ EI ∗ ) . The values were calculated using the appropriate equations implemented in Ki the GraphPad Prism 5 software. The inhibitors were dissolved in water or DMF (the solvent was […]
Urease activity was determined using the […]
run in triplicate for the compounds analyzed.

Experiment [8] has as its system urease in living cells of P. mirabilis PCM 543. Kind of experiment: Inhibition of ureolysis in whole P. mirabilis cells in artificial urine model. The settings on record: Proteus mirabilis, read-out: IC90 (urine model).

We go through 25 compounds from paper PMC9923736, “Optimized Ebselen-Based Inhibitors of Bacterial Ureases with Nontypical Mode of Action” (Journal of Medicinal Chemistry, 2023).

Molecules are shown by their SMILES.

Chain of Sporosarcina pasteurii urease (P41020 whole entry, looked up): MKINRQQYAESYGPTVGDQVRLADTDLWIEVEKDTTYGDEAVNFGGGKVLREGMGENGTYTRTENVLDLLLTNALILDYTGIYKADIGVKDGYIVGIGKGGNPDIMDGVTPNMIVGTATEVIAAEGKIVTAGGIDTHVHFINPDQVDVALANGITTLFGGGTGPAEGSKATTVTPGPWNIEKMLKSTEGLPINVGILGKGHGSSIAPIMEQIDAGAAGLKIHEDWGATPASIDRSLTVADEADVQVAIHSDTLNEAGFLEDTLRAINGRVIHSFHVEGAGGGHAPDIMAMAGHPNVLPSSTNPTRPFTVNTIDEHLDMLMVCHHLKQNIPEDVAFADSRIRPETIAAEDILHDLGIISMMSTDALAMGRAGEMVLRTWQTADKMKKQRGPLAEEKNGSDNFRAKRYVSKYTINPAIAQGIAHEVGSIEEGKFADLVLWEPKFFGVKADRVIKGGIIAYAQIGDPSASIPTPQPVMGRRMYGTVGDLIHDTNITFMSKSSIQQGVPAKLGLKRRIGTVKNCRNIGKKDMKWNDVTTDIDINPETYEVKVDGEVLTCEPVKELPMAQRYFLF

`O=c1c2ccccc2[se]n1-c1ccccc1` [compound 1, 2-phenyl-1,2-benzisoselenazol-3(2H)-one]: the Ki (usually a measure of affinity in units of concentration, obtained from inhibition or displacement) in experiment [1] was 63 nM; in experiment [3] it was 80 to 4420 nM. Also, the IC50 (in general, the midpoint of a concentration-inhibition curve) in experiment [2] is 29.2 ± 3.1 nM; in experiment [4], 2430 nM; in experiment [5] it was 1000 nM; in experiment [6], 360 nM.
`Cc1ccccc1-n1[se]c2ccccc2c1=O` [compound 30, 2-(2-Methylphenyl)-1,2-benzisoselenazol-3(2H)-one]: the IC50 in experiment [2] came to 25 ± 2 nM. Besides, in experiment [7], the affinity corresponds to a Ki of 3.56 ± 0.32 nM. For the same compound, the IC90 – broadly, the concentration at which the effect reaches the 90% level – in experiment [8] came out at 121 ± 13 nM.
On to `O=c1c2ccccc2[se]n1-c1ccccc1F` [compound 31, 2-(2-Fluorophenyl)-1,2-benzisoselenazol-3(2H)-one], for which, in experiment [2], the IC50 stood at 7.48 ± 0.67 nM. Moreover, in experiment [7], the affinity, expressed as Ki, was 0.974 ± 0.089 nM. For the same compound, the IC90 in experiment [8] stood at 34.7 ± 2.7 nM.
With `O=c1c2ccccc2[se]n1-c1ccccc1Cl` [compound 32, 2-(2-Chlorophenyl)-1,2-benzisoselenazol-3(2H)-one], the IC50 in experiment [2] came to 13.6 ± 1.5 nM. The Ki in experiment [7] stood at 13.7 ± 0.96 nM. Moreover, in experiment [8], the IC90 came out at 87.7 ± 8.3 nM.
Take `O=c1c2ccccc2[se]n1-c1ccccc1Br` [compound 33, 2-(2-Bromophenyl)-1,2-benzisoselenazol-3(2H)-one]: in experiment [2], the IC50 was found to be 26.9 ± 2.8 nM. Besides, the affinity in experiment [7], expressed as Ki, was 6.79 ± 0.53 nM. Also, the IC90 in experiment [8] was 543 ± 26 nM.
As to `O=c1c2ccccc2[se]n1-c1ccccc1O` [compound 34, 2-(2-Hydroxyphenyl)-1,2-benzisoselenazol-3(2H)-one], in experiment [2], the IC50 was 16.8 ± 1.4 nM. The same compound gave a Ki in experiment [7] of 1.42 ± 0.14 nM. Besides, the IC90 in experiment [8] stood at 148 ± 6 nM.
Regarding `COc1ccccc1-n1[se]c2ccccc2c1=O` [compound 35, 2-(2-Methoxyphenyl)-1,2-benzisoselenazol-3(2H)-one], the IC50 in experiment [2] turned out to be 4.19 ± 0.45 nM. Besides, affinity in experiment [7] was put at a Ki of 5.36 ± 0.43 nM. In experiment [8], the IC90 turned out to be 18.8 ± 2.4 nM.
As to `O=c1c2ccccc2[se]n1-c1cccc(F)c1` [compound 36, 2-(3-Fluorophenyl)-1,2-benzisoselenazol-3(2H)-one], the concentration for half-maximal inhibition (IC50) in experiment [2] was 8.86 ± 0.81 nM. This compound also displayed a Ki in experiment [7] of 1.89 ± 0.16 nM. Further, in experiment [8], the IC90 was 223 ± 17 nM.
Turning to `COc1cccc(-n2[se]c3ccccc3c2=O)c1` [compound 37, 2-(3-Methoxyphenyl)-1,2-benzisoselenazol-3(2H)-one], the IC50 in experiment [2] came out at 11.5 ± 1.3 nM. In addition, in experiment [7], the Ki is 1.07 ± 0.08 nM and the mechanism of inhibition entry is reported as “Slow binding inhibition”. Also, the IC90 in experiment [8] was 53.8 ± 3.7 nM.
As for `Cc1ccc(-n2[se]c3ccccc3c2=O)cc1` [compound 38, 2-(4-Methylphenyl)-1,2-benzisoselenazol-3(2H)-one], the Ki in experiment [7] is 4.04 ± 0.32 nM.
`O=c1c2ccccc2[se]n1-c1ccc(F)cc1` [compound 39, 2-(4-Fluorophenyl)-1,2-benzisoselenazol-3(2H)-one]: the IC50 in experiment [2] stood at 12.1 ± 1.4 nM. For the same compound, in experiment [7], the Ki worked out at 24.1 ± 2.6 nM. In addition, in experiment [8], the IC90 was 145 ± 17 nM.
For the compound `O=c1c2ccccc2[se]n1-c1ccc(C(F)(F)F)cc1` [compound 40, 2-(4-Trifluoromethylphenyl)-1,2-benzisoselenazol-3(2H)-one], the IC50 in experiment [2] is 16 ± 1.3 nM. This compound also gave a Ki in experiment [7] of 0.0363 ± 0.0039 nM. The IC90 in experiment [8] was found to be 100 ± 14 nM.
For `COc1ccc(-n2[se]c3ccccc3c2=O)cc1` [compound 41, 2-(4-Methoxyphenyl)-1,2-benzisoselenazol-3(2H)-one], in experiment [2], the IC50 is 15.9 ± 1.1 nM. Moreover, the affinity in experiment [7], expressed as Ki, was 44 ± 4.2 nM. In addition, the IC90 in experiment [8] was determined as 180 ± 10 nM.
`CCCCOc1ccc(-n2[se]c3ccccc3c2=O)cc1` [compound 42, 2-(4-n-Butoxyphenyl)-1,2-benzisoselenazol-3(2H)-one]: the IC50 in experiment [2] amounted to 32.2 ± 3.8 nM. In experiment [7], the affinity corresponds to a Ki of 1.78 ± 0.18 nM and the mechanism of inhibition entry is reported as “Slow binding inhibition”. For the same compound, in experiment [8], the IC90 is 224 ± 15 nM.
`COc1ccc(-n2[se]c3ccccc3c2=O)c(C)c1` [compound 43, 2-(4-Methoxy-2-methylphenyl)-1,2-benzisoselenazol-3(2H)-one]: the IC50 in experiment [2] amounted to 25.1 ± 2 nM. In addition, in experiment [7], the Ki stood at 7.3 ± 0.56 nM and the mechanism of inhibition result is listed as “Slow binding inhibition”. In addition, in experiment [8], the IC90 amounted to 148 ± 10 nM.
Regarding `O=c1c2ccccc2[se]n1-c1ccc(F)cc1F` [compound 44, 2-(2,4-Difluorophenyl)-1,2-benzisoselenazol-3(2H)-one], in experiment [2], the IC50 was found to be 17 ± 1.8 nM. Moreover, the affinity in experiment [7], expressed as Ki, was 0.0167 ± 0.0017 nM. Besides, in experiment [8], the IC90 amounted to 130 ± 16 nM.
`Cc1ccc(-n2[se]c3ccccc3c2=O)c(Cl)c1` [compound 46, 2-(2-Chloro-4-methylphenyl)-1,2-benzisoselenazol-3(2H)-one]: in experiment [2], the IC50 is 20 ± 1.7 nM. For the same compound, the Ki in experiment [7] is 3.26 ± 0.23 nM. The IC90 in experiment [8] was 176 ± 12 nM.
Turning to `O=c1c2ccccc2[se]n1-c1ccc(F)cc1Cl` [compound 47, 2-(2-Chloro-4-fluorophenyl)-1,2-benzisoselenazol-3(2H)-one], in experiment [2], the IC50 is 22.7 ± 2.5 nM. The affinity in experiment [7] corresponds to a Ki of 0.0058 ± 0.0004 nM. Moreover, the IC90 in experiment [8] came out at 126 ± 8 nM.
The compound `Cc1ccc(Cl)cc1-n1[se]c2ccccc2c1=O` [compound 48, 2-(5-Chloro-2-methylphenyl)-1,2-benzisoselenazol-3(2H)-one] had a Ki in experiment [7] of 75.2 ± 6.2 nM.
For the compound `O=c1c2ccccc2[se]n1-c1cc(Cl)ccc1F` [compound 49, 2-(5-Chloro-2-fluorophenyl)-1,2-benzisoselenazol-3(2H)-one], the IC50 in experiment [2] turned out to be 11.8 ± 1 nM. Further, the Ki in experiment [7] came to 0.0135 ± 0.0014 nM. Moreover, the IC90 in experiment [8] stood at 151 ± 20 nM.
Taken in the same sequence, the figures for `Cc1ccc(Cl)c(-n2[se]c3ccccc3c2=O)c1` [compound 50, 2-(2-Chloro-5-methylphenyl)-1,2-benzisoselenazol-3(2H)-one] were 54 ± 2.7 nM, 1.63 ± 0.13 nM and 243 ± 17 nM.
As to `O=c1c2ccccc2[se]n1-c1cc(Cl)ccc1Cl` [compound 51, 2-(2,5-Dichlorophenyl)-1,2-benzisoselenazol-3(2H)-one], the IC50 in experiment [2] was 21.2 ± 1.5 nM. In experiment [7], this compound gave a Ki of 0.00885 nM. Also, in experiment [8], the IC90 stood at 254 ± 14 nM.
Regarding `COc1ccc(C)cc1-n1[se]c2ccccc2c1=O` [compound 52, 2-(2-Methoxy-5-methylphenyl)-1,2-benzisoselenazol-3(2H)-one], the IC50 in experiment [2] came out at 11.8 ± 1.6 nM. In experiment [7], the Ki was 7.11 ± 0.56 nM and the mechanism of inhibition result is “Slow binding inhibition”. Moreover, the IC90 in experiment [8] came out at 96.6 ± 8.1 nM.
For `COc1ccc(Cl)cc1-n1[se]c2ccccc2c1=O` [compound 53, 2-(5-Chloro-2-methoxyphenyl)-1,2-benzisoselenazol-3(2H)-one], the IC50 in experiment [2] was found to be 21.9 ± 1.7 nM. The same compound showed a Ki in experiment [7] of 1.63 ± 0.12 nM. Further, the IC90 in experiment [8] is 82.2 ± 11.3 nM.
For `Cc1cc(-n2[se]c3ccccc3c2=O)ccc1Cl` [compound 54, 2-(4-Chloro-3-methylphenyl)-1,2-benzisoselenazol-3(2H)-one], in experiment [2], the IC50 was found to be 23.8 ± 2 nM. The compound further came in with a Ki in experiment [7] of 2.45 ± 0.16 nM. Further, the IC90 in experiment [8] was determined as 124 ± 14 nM.
